Consider 4 molecules from paper PMC6911004, “Fragment-based screening identifies molecules targeting the substrate-binding ankyrin repeat domains of tankyrase” (Scientific Reports, 2019).

One data set addresses T1, TNKS2 ARC5 (Homo sapiens, UniProt Q9H2K2).
T1 construct: followed by TNKS2 ARC5 (1 μL, 100 μM stock); His6-GST; made in house; host or cells: E. coli
Description: Differential scanning fluorimetry (DSF, thermal shift). It counts as binding. As to conditions: fragment 500 μM, 5% DMSO. As for the experimental part: Therefore, we chose TNKS2 ARC5 for screening by DSF, anticipating the largest signal window for measuring changes in Tm upon fragment binding.
We screened 1869 compounds in duplicate at a concentration of 500 μM, which we considered a reasonable compromise between having a sufficiently high concentration to identify weak binders while minimising the likelihood of false positives through fragment precipitation/aggregation and non-specific binding. The final DMSO concentration was 5%. We calculated melting temperatures using both the inflection point and the maximum peak of first derivative data methods. Both methods generally agreed, unless the melt curve was biphasic or misshapen, with slightly lower variability for the […] Tm determination method (see Materials and Methods for experimental and analysis details).
We determined the melting temperature for the unbound ARC (Tm, 0) from the mean of 12 reference melting curves per plate, with 5% DMSO only. We calculated the change in melting temperature (ΔTm) by subtracting the mean Tm, 0 from Tm, compound. We tested compounds in duplicate, defining fragments as hits if they conferred a ΔTm outside two standard deviations (2σ) from the mean, in one or both replicates. To check for consistency between plates, we ran triplicate peptide controls; however, we excluded peptide ΔTm values from the calculation of the mean ΔTm to avoid skewing the results. We observed mean ΔTm values (IP/1st derivative methods) of −0.127/−0.331 °C and σ as 0.997/1.19 °C. A hit cut-off of 2σ gave absolute shifts of +1.87/+2.05 °C for compounds that stabilised and −2.13/−2.71 °C for compounds that destabilised the ARC (Fig. 2B).
For the screen, a C1000 thermal cycler (Bio-Rad) was used to record melt curves. SYPRO Orange was purchased as a 5000 × stock in DMSO from Sigma Aldrich. The ICR fragment library was available as 100 mM stocks in DMSO, and dispensed (25 nL) using an ECHO acoustic liquid handling system into white 384-well PCR plates (Framestar, 4titude). Wells were backfilled with DMSO (225 nL). Buffer (2.75 μL, 25 mM HEPES-NaOH pH 7.5, 100 mM NaCl, 2 mM TCEP) was added, followed by TNKS2 ARC5 (1 μL, 100 μM stock) and then SYPRO orange dye (1 μL, 25×). The plate was centrifuged after the addition of each reagent (1 min, 1000 × g). Final assay concentrations were as follows: TNKS2 ARC5 (20 μM); fragment (500 μM); SYPRO Orange dye (5×); DMSO (5% v/v) in a total volume of 5 μL. Peptide control wells (3BP2 TBM 16-mer, 200 μM, sequence LPHLQRSPPDGQSFRSW with C-terminal tryptophan added for photometric concentration measurements, the N-terminus acetylated and the C-terminus amide-capped) were plated in triplicate, and there were 12 blank wells per plate, with DMSO only (250 nL, 5% v/v). Melt curves were recorded from 20–95 °C, with the temperature ramped by 0.5 °C every 15 s. Data were analysed using Vortex (Dotmatics) software and melting temperatures calculated from both the inflection point and the maximum peak of 1st-derivative data. Data points were excluded if the melt curve was poor, i.e., if there was no fluorescence signal above baseline, high fluorescence intensity throughout, or if the melt curve was shallow (<1000 rfu difference between baseline and peak maximum). The unbound melting temperature was determined from the mean of 12 reference melting curves, with 5% DMSO only. The change in melting temperature (ΔTm) was calculated by subtracting the mean Tm, 0 from Tm, compound. Compounds were tested in duplicate, and fragments were defined as hits if they gave a ΔTm outwith 2 σ from the mean in one or both replicates.
For the experiment shown in Fig. 2A, ARC and 3BP2 TBM peptide concentrations were 20 and 200 μM, respectively, in 50 mM HEPES-NaOH pH 7.5, 100 mM NaCl, 2 mM TCEP and a total volume of 25 μL. SYPRO Orange was added at 5×. Data were recorded from 4–95 °C, with the temperature ramped by 0.5 °C every 15 s, using a CFX384 thermal cycler (Bio-Rad). […]
(Differential scanning fluorimetry follows unfolding on heating by fluorescence.)

Data set [1] can be described thus: Fragment solubility assay by NMR. The class given is physicochemical. As to conditions: NMR buffer (HEPES-NaOH) with 5% DMSO, aqueous with cosolvent or surfactant or cyclodextrin, kinetic from dmso stock; NMR buffer pH 7.5, 5% DMSO, 500 μM nominal. Here is the method:
Fragments were dispensed into a 384-well plate (250 nL of 100 mM stock in DMSO, 500 μM final concentration) using an ECHO acoustic dispenser. DMSO (2.25 μL) was added, then NMR buffer (47.5 μL, 25 mM HEPES-NaOH pH 7.5, 100 mM NaCl, 1 mM TCEP, 10% D2O). The plate was centrifuged (1 min, 1000 × g) before the solutions were transferred to 1.7 mm NMR tubes using a Gilson liquid handling system. ^1H NMR spectra were recorded with the DMSO and water signals dampened. 100 μM caffeine was used as an external standard to quantify the ligand signals.

Another data set deals with T2, TNKS2 ARC4 (Homo sapiens, UniProt Q9H2K2).
T2 construct: The cell was filled with TNKS2 ARC4 (488–649); His6-GST; made in house; host or cells: E. coli
T2 sequence (Q9H2K2 488-649): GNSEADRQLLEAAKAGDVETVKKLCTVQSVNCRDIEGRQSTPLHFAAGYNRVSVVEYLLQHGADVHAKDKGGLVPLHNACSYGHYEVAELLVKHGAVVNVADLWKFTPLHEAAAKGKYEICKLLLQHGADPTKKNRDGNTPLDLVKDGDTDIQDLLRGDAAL
The experiment in a line: Differential scanning fluorimetry (DSF). It counts as binding. Particulars: ARC 20 μM + 3BP2 TBM peptide 200 μM, inflection point method. As for the experimental part: For the experiment shown in Fig. 2A, ARC and 3BP2 TBM peptide concentrations were 20 and 200 μM, respectively, in 50 mM HEPES-NaOH pH 7.5, 100 mM NaCl, 2 mM TCEP and a total volume of 25 μL. SYPRO Orange was added at 5×. Data were recorded from 4–95 °C, with the temperature ramped by 0.5 °C every 15 s, using a CFX384 thermal cycler (Bio-Rad). Data were analysed by non-linear regression in GraphPad Prism using a Boltzmann sigmoid with linear baselines. ΔTm values were determined using the inflection point method.

Values after ≈ are worked out from the molar mass of the structure shown.

T1 sequence (Q9H2K2 641-800): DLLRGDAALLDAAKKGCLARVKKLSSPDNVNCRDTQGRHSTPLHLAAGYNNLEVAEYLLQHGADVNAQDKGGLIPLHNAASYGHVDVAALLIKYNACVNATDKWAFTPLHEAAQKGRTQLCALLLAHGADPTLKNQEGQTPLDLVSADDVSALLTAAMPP

By solubility is commonly meant the dissolved amount per volume that the medium holds. With `O=C(NCc1ccco1)c1ccc(F)cc1` [compound 3], the “ΔTm (°C)” value at TNKS2 ARC5 (method of Tm analysis not stated) came out at 2.5 °C. Besides, the concentration in solution in data set [1] (solubility) was 220 µM (≈ 48.2 µg/mL). One may read the ΔTm as the change in melting temperature against a reference sample. Take “LPHLQRSPPDGQSFRSW [3BP2 16-mer peptide, 16-mer TBM peptide derived from 3BP2, W added for A280, N-terminus acetylated, C-terminus amide-capped; positive control, reference compound]”: the ΔTm with TNKS2 ARC4 was determined as 0.63 °C. In data set [1], `O=C(NCc1ccco1)c1ccc2nccnc2c1` [compound 9] returned a solubility of 650 µM (≈ 165 µg/mL). As for `O=C(NCc1ccc(F)cc1)c1ccc2nccnc2c1` [compound 5], at TNKS2 ARC5 (screen, biphasic melt curves), the “ΔTm calculated by the inflection point method” value was 1.6 °C. Besides, the “ΔTm calculated by the 1st derivative method” value at TNKS2 ARC5 (screen, second peak used to calculate Tm) was 8.1 °C. Moreover, in data set [1], the concentration in solution (solubility) was 410 µM (≈ 115 µg/mL).
